Measurements as given in patent publication US20250213593A1, “Use of Derivatives based on Sarsasapogenin Structure and Pharmaceutical Compositions thereof” (BEIJING PHYTOVENT PHARMACEUTICAL TECHNOLOGY CO., LTD., priority 2022, published 2025).

Key:
hippocampal neurons = experiment: L-cysteine-induced neuronal excitotoxicity; type: cell-based, SD rats; conditions: compound 1 μM, 24 h before inducer
Summary of the method: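 Primary E18-19 SD rat hippocampal neurons at DIV19 pretreated 24 h with compound (final 1 μM; AP5 100 μM positive control, DMSO negative), then exposed to L-cystine 400 μM plus NaHCO3 10 mM for 18 h. Hoechst staining; total and dead neurons counted in 6 random fields per well.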

[1] = tested on: transgenic AD rat model (human APP mutant protein, SD rats); experiment: T-maze test of AD rats; type: in vivo; conditions: model vs administration group
Method: The T-maze test had four stages: I. in an acclimatization stage, food was placed in both arms, and valves on both arms were opened. Each rat was trained twice. All rats entered the next stage after they had eaten the food on both sides within 5 min twice. II. In a forced training stage, a valve on one side was closed first, and the rats were allowed to eat the food on the opposite side. A valve on the opposite side was closed again, and the rats were allowed to eat the food on the other side. This was a training process. Each animal was trained 4 times a day for 3 days. III.
In an optional training stage, the valve on one side was closed in half first, and the rats were allowed to eat the food on the opposite side. All the valves were then closed. If the rats went to the other side, they could finish eating the food there. If the rats went to the same side, there was no food here, and they were closed on this side for 30 s. This was a training process. Each animal was trained 4 times a day until the accuracy rate exceeded 75% for 2 consecutive days and proceeded to the next stage. IV.
In a delayed optional test stage, it was basically the same as the operation of the III stage, except that interval time was added after the forced training stage and before the optional training stage. The interval time was set to 1.5 min, 3 min, and 10 min. Test was performed for 4 times at each time.

[2] = tested on: mice with ulcerative colitis induced by 3.0% DSS; experiment: DSS mouse enteritis model; type: in vivo; conditions: 80 mpk oral gavage once a day, 9 days
Excerpt: 60 mice in good health were divided into 6 groups according to body weight, with 10 mice in each group: a normal control group, a model group, a positive drug group, and groups of different test products (Embodiment 13B, Embodiment 33, and Embodiment 34, at a dosage of 80 mpk each). In addition to the normal control group, the mice in other groups were administrated with a 3.0% DSS solution to drink freely, and consecutively modeled for 8 days. The normal control group was administrated with autoclaved filtered water to drink freely. The drug was administered on the day of modeling, and a test product was administered by oral gavage according to a designed dosage, once a day for 9 consecutive days. […] On the next day after the last administration, after deep anesthesia with CO2, cardiac blood and plasma were collected, and cryopreserved at −80° C. Subsequently, the abdominal cavity was dissected, the liver was removed and cryopreserved at −80° C. Finally, the entire colon tissue was removed, the colon length was measured, photographs were taken, and the colon content was washed with normal saline after dissection along the mesenteric side and weighed.

[3] = tested on: U2932 (human diffuse large B-cell lymphoma cells); experiment: Cell proliferation assay, U2932; type: cell-based; conditions: U2932, 72 h
Method: • Experimental and analytical method: cells were inoculated into a 96-well cell culture plate with a lid at a maximum concentration of 10 μM for a test compound, and diluted in three folds to a series of test concentrations, and cells were incubated at 37° C., 5% CO2 for 72 h. The concentration of DMSO was 0.5%, 100 μl of medium was taken from each well. 100 μl of reagent (Celltitute Glo Assay Kit) was added to each well, and a flat plate was shaken on a plate shaker (protected from light) for 2 min. A culture plate was incubated (protected from light) at room temperature for 30 min. Chemiluminescence values were recorded by a multi-plate plate reader, and the experimental results were as follows:
U937 (histiocytic lymphoma cells), OCI-LY3 (human diffuse large B-cell lymphoma cells), U2932 (human diffuse large B-cell lymphoma cells), and HT cells (human mixed lymphoma cells) were analyzed in the table for experimental analysis of cell proliferation.

[4] = tested on: SARS-CoV-2 pseudovirus (HEK293T cells); type: cell-based
male SD rats, TBI model = experiment: Acute traumatic brain injury (TBI) rat model; type: in vivo; conditions: 80 mpk once a day, 7 days; vs solvent control (P<0.05)
Method: • Experimental and analytical method: male SD rats were used in this experiment to establish a TBI rat model, which was randomly divided into: a solvent control group (8 rats), a test product Embodiment 13B (80 mpk, 10 rats), and a test product Embodiment 26 (80 mpk, 9 rats). After TBI surgery, drugs were administered by gavage once a day for 7 consecutive days.

[5] = tested on: transgenic AD rat model (human APP mutant protein, SD rats); experiment: Water maze test of AD rats; conditions: administered from 7 to 13 months of age; vs model group
SOD^G93A transgenic mice = experiment: Gait analysis of SOD^G93A mice; conditions: 40 mpk from Day 60, tested at Week 19; vs model group
Excerpt: Gait analysis was a behavioral analysis method that tested motor dysfunction. The mice with motor dysfunction would have a significant reduction in stride length. Our experiments were divided into two groups, i.e., a model group and an administration group.

SMILES: C[C@H]1CC[C@@]2(OC1)O[C@H]1C[C@@H]3[C@H](CC[C@H]4[C@H]3CC[C@@H]3C[C@H](NC(=O)CC(=O)N5CCN(CCN(C)C)CC5)CC[C@@]34C)[C@H]1[C@@H]2C [Embodiment 13b]
- protective effects on L-Cystine (400 μM)-induced neuronal excitotoxicity (hippocampal neurons): protective effects
- working memory in delayed optional T-maze test ([1]; interval 1.5 min, administered from 7 to 15 months of age): no significant difference
- working memory in delayed optional T-maze test ([1]; interval 3 min): no significant difference
- working memory in delayed optional T-maze test ([1]; interval 10 min): working memory of the administration group also persisted
- colon length [2]: could increase the weights and lengths of the colons
- colon weight [2]: could increase the weights and lengths of the colons
- general conditions of DSS colitis mice [2]: certain improvement effects
- IC50 [3]: 720 nM
- mitochondrial fragmentation after pseudovirus infection [4]: not fragmented
- early brain apoptosis rates (male SD rats, TBI model): significantly lower
- total apoptosis rates (male SD rats, TBI model): significantly lower
- average distance from the platform [5]: improved behavioral performances
- dwell time in the target quadrant [5]: improved behavioral performances
- number of platform shuttles [5]: improved behavioral performances
- stride length (SOD^G93A transgenic mice): much larger
